From paper PMC10786037, “Autoinhibition in the Signal Transducer CIN85 Modulates B Cell Activation” (Journal of the American Chemical Society, 2023)
Where no end group is shown, it is not given here. [ ]: non-standard residue; d: D form. pS = N[C@@H](COP(=O)(O)O)C(=O)O

Tests used:
[1] = biological target: T1, CIN85 SH3C domain (Homo sapiens, UniProt Q96B97); test: NMR titration (chemical shift perturbations) of 15N-labeled SH3C domain with synthetic CIN85-PRM1 peptides; type: binding; details: for difference in binding energy compared to wild-type peptide (ΔΔG, net energetic contribution of the mutated residue): calculated from the KD's of mutant and wild-type peptide to SH3C; for fold increase of KD compared to wild-type peptide: mutant peptide binding to SH3C domain
T1 construct: His7 (with TEV protease cleavage site) (N, cleaved yes); made in house; host or cells: Escherichia coli BL21(DE3)
T1 sequence (Q96B97 267-328 limits assumed): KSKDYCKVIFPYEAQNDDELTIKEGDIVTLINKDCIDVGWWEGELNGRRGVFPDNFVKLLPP
Excerpt: (§1) The recognition of PRM by SH3 domains typically depends on the presence of positively charged residues, such as arginines at the motif’s N- or C-terminus, which often form cation−π interactions with conserved tryptophan residues in the SH3 binding interface.[30] […] We therefore used CIN85-PRM1 mutant peptide binding to the SH3C domain to determine the role of both arginines (R227 and R229) in this interaction. […] Because we knew that this interaction was in part driven by cation−π interactions, we anticipated a net energetic contribution on the order of −12 ± 6 kJ/mol if such an interaction would be disturbed by the mutation.[32] […] In the context of the whole protein, local concentration and/or cooperative effects could increase the actual strength of this interaction considerably. The residue S230 is adjacent to R229 and a known site for activation-induced phosphorylation in CIN85[33],[34] (see also Figure S4). To investigate the effect of S230s involvement in this interaction, we incorporated a phosphoserine (pS230), a S230D, and a S230A mutation into the synthetic peptide.
(§2) with 1000 resampled datasets with replacement. After obtaining the dissociation constant, the
(§3) Gibbs free energy of this interaction was calculated using the following relation: […]
(§4) Their difference in free energy can then be calculated as follows: […]
(§5) The value of ∆∆G here has the meaning of the stability contribution or net energetic contribution
(§6) of the residue that was mutated. […]

[2] = system: CIN85 SH3C domain; test: as above; type: binding, human; details: same peptide
Excerpt: as §1, §2, §3, §4, §5, §6

[3] = biological target: T2, CIN85 SH3B domain (Homo sapiens, UniProt Q96B97); test: NMR titration (chemical shift perturbations) of 15N-labeled SH3B domain with synthetic CIN85-PRM1 peptide; type: binding; details: isolated SH3B domain, CSP of 15N-labeled domain, error of fitted KD from bootstrap resampling, read-out: KD (mM), binary SH3:peptide interaction
T2 construct: GST (with thrombin cleavage site) (N); made in house; host or cells: Escherichia coli BL21(DE3)
T2 sequence (Q96B97 98-157 limits assumed): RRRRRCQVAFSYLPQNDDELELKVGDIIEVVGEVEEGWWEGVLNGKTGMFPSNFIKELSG
Excerpt: (§7) We further used NMR titrations to assess the interaction of CIN85-PRM1 with isolated SH3 domains of CIN85, observing chemical shift perturbations (CSP) in the ^15N-labeled SH3 domains upon titration with a synthetic 14-residue peptide of the sequence ^219FKDKPIKLRPRSIE^232 (see Figure S2). […] We mapped the CSP onto the first model of the NMR structure of SH3C (PDB: 2k9g) in Figure 2A. Binding to the CIN85-PRM1 peptide occurs through the conserved binding site, involving the RT-loop (residues 278–292), the N-Src-loop (residues 300–307), and also the 3_10-helix (residues 320–322) of SH3C (see Figure 2B). […]
(§8) with 1000 resampled datasets with replacement. After obtaining the dissociation constant, the Gibbs free energy of this interaction was calculated using the following relation: […]
(§9) with R as the ideal gas constant (8.314 Jmol−1K−1) and T as the absolute temperature in K. This quantity is useful when comparing two similar interactions that differ in their KD, i.e. variants of the same peptide that have a single-point mutation or a post-translational modification (PTM) and […]
as §4
(§10) Determination of rotational correlation times and translational diffusion coefficients Residue-specific cross-correlated relaxation rates were determined at 800 MHz via the 2D TRACT experiment1, 12-13,using variable delays from 1-190 ms. […]

[4] = biological target: T3, CIN85 SH3A domain (Homo sapiens, UniProt Q96B97); test: NMR titration (chemical shift perturbations) of 15N-labeled SH3A domain with synthetic CIN85-PRM1 peptide; type: binding; details: isolated SH3A domain, CSP of 15N-labeled domain, error of fitted KD from bootstrap resampling, read-out: KD (mM), binary SH3:peptide interaction
T3 construct: GST (with thrombin cleavage site) (N); made in house; host or cells: Escherichia coli BL21(DE3)
T3 sequence (Q96B97 1-58 limits assumed): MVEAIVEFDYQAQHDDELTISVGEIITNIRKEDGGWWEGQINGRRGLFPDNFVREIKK
Excerpt: as §7, §8, §9, §4, §10

[5] = biological target: T4, CIN85 SH3C domain (human, UniProt Q96B97-1 262-333); test: NMR titration; 15N-labelled isolated SH3 domain titrated with synthetic 14-residue peptide; chemical shift perturbations; KD fitted, error by bootstrap resampling; details: both partners purified
T4 construct: the NMR structure PDB 2k9g of SH3C was used to map the shifts; 15N-labelled for NMR; The limits of PDB 2k9g may differ from those of the construct; also called C-terminal SH3 domain
T4 sequence: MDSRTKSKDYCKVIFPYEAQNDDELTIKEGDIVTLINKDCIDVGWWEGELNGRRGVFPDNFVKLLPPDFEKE

[6] = biological target: T5, CIN85 SH3A domain (human); test: as above; details: both partners purified
T5 chain: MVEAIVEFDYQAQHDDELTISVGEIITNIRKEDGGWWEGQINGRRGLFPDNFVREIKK

[7] = biological target: T6, CIN85 SH3B domain (human); test: as above; details: both partners purified
T6 chain: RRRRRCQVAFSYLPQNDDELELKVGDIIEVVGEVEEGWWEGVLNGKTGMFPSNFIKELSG

## Ac-FKDKPIKLAPASIE-NH2 [^219FKDKPIKLAPASIE^232]
[1]; isolated SH3C domain, NMR titration, CSP of 15N-labeled domain, error of fitted KD from bootstrap resampling, read-out: KD (mM), binary SH3:peptide interaction
  Kd: > 2.45 mM

## Ac-FKDKPIKLAPRSIE-NH2 [^219FKDKPIKLAPRSIE^232]
[1]
  difference in binding energy compared to wild-type peptide (ΔΔG, net energetic contribution of the mutated residue): 0.784 ± 0.0478 kcal/mol
  fold increase of KD compared to wild-type peptide: 4 fold

## Ac-FKDKPIKLRPASIE-NH2 [^219FKDKPIKLRPASIE^232]
[1]
  difference in binding energy compared to wild-type peptide (ΔΔG, net energetic contribution of the mutated residue): 1.51 ± 0.239 kcal/mol
  fold increase of KD compared to wild-type peptide: 12 fold

## Ac-FKDKPIKLRPRSIE-NH2 [^219FKDKPIKLRPRSIE^232]
[2]; SH3C versus SH3A
  fold lower dissociation constant (KD) of SH3C than SH3A: 3 fold
[2]; SH3C versus SH3B
  fold lower dissociation constant (KD) of SH3C than SH3B: 5 fold
[3]
  Kd: 1.09 ± 0.05 mM
[4]
  Kd: 0.73 ± 0.02 mM

B1: CIN85-PRM1 peptide, wild type (residues 219-232) (peptide)
peptide: FKDKPIKLRPRSIE
notes: CIN85, human, residues 219-232 of the linker between SH3B and SH3C, holding the proline-rich motif CIN85-PRM1; also called wild-type CIN85-PRM1 peptide; source: synthetic peptide
[5]
  Kd: 210 µM
[6]
  Kd: 730 µM
[7]
  Kd: 1090 µM

B2: CIN85-PRM1 peptide R227A (residues 219-232) (peptide)
peptide: FKDKPIKLAPRSIE
notes: CIN85, human, residues 219-232 with R227A; also called R227A mutant peptide; source: synthetic peptide
[5]
  Kd: 750 µM

B3: CIN85-PRM1 peptide R227A/R229A (residues 219-232) (peptide)
peptide: FKDKPIKLAPASIE
notes: CIN85, human, residues 219-232 with R227A and R229A; also called R227A/R229A mutant peptide; source: synthetic peptide
[5]
  Kd: > 2450 µM

B4: CIN85-PRM1 peptide R229A (residues 219-232) (peptide)
peptide: FKDKPIKLRPASIE
notes: CIN85, human, residues 219-232 with R229A; also called R229A mutant peptide; source: synthetic peptide
[5]
  Kd: 2450 µM

B5: CIN85-PRM1 peptide S230A (residues 219-232) (peptide)
peptide: FKDKPIKLRPRAIE
notes: CIN85, human, residues 219-232 with S230A; also called S230A peptide; source: synthetic peptide
[5]
  Kd: 200 µM

B6: CIN85-PRM1 peptide S230D (residues 219-232) (peptide)
peptide: FKDKPIKLRPRDIE
notes: CIN85, human, residues 219-232 with the phosphomimetic S230D; also called S230D peptide; source: synthetic peptide
[5]
  Kd: 710 µM

B7: CIN85-PRM1 peptide pS230 (residues 219-232) (peptide)
peptide: FKDKPIKLRPR[pS]IE
notes: CIN85, human, residues 219-232 with phosphoserine at S230; also called pS230 peptide; source: synthetic peptide
[5]
  Kd: 2350 µM
